Results from article PMC3154276, “The Effect of the Potential PhoQ Histidine Kinase Inhibitors on Shigella flexneri Virulence” (PLoS ONE, 2011).

Tests used:
[1] = system: S. flexneri 2a 301 phoQ/phoP knock-out mutant (Sf301 ΔphoQ/phoP); assay: Gentamicin protection assay, HeLa cell invasion by phoQ/phoP knock-out mutant; format: cell-based; conditions: HeLa cells; for cell invasion rate of Sf301 ΔphoQ/phoP: untreated mutant 0.069; for effect on cell invasion of Sf301 phoQ/phoP knock-out mutant: Figure 6C
Method: Bacterial ability to invade HeLa cells was tested with a gentamicin protection assay. HeLa cells were grown in six-well tissue culture plates to semi-confluent monolayers (DMEM, 10% FCS, 5% CO2). Sf9380 or Sf301 ΔphoQ/phoP was treated with potential PhoQ inhibitors for 8 hours in LB at 37°C (final concentrations of 100,50,25,12.5 or 6.25 µmol/L) prior to infection. The bacteria pre-treated with potential PhoQ inhibitor without washing, were added to semi-confluent HeLa cells at a multiplicity of infection of 100, at the same time the bacteria were diluted and plated onto LB agar plates. The CFUs were counted as initial bacterial number before added into HeLa cells. Then the plates were centrifuged at 900×g for 5 minutes. After incubating at 37°C for 60 minutes (For testing intracellular growth and spreading to adjacent cell, cells were further incubated for 290 min [9].), the cells were washed three times with PBS, and gentamicin was added to the medium to a final concentration of 10 µg/ml for 20 minutes at 37°C. After the incubation, the HeLa cells in each well were lysed in 1 ml of PBS containing 0.1% Triton X-100 for 10 minutes at room temperature. The lysates were diluted and plated onto LB agar plates in triplicate. Colonies grown on LB plates were counted. The results of the assays were expressed as the number of bacteria recovered from gentamicin-treated cells divided by the number of inoculated bacteria added to the cell. The cells were inoculated with untreated Sf9380 or Sf301 ΔphoQ/phoP (treated without DMSO) as a positive control and E. coli ATCC 25922, an avirulent strain treated without DMSO, as a negative control. DMSO is the solvent of the potential PhoQ inhibitor compounds; therefore, Sf9380 was also treated with the same amount of 0.1% DMSO as the other groups to control for any DMSO-specific effects. The cell invasion assay was performed in triplicate for each potential PhoQ inhibitor, and the assay was repeated twice.

[2] = system: S. flexneri 2a 301; assay: Gentamicin protection assay, HeLa cell invasion by Sf301; format: cell-based; conditions: bacteria treated 8 h, Figure S4
Method: Supplementary file pone.0023100.s004.tif: Figure S4 The effects of potential PhoQ inhibitors on cell invasion of Shigella Sf 301. […] The bacteria were treated with each of the four potential PhoQ inhibitors grown for 8 h. Then the bacteria were inoculated with HeLa cells for 60 minutes prior to the addition of gentamicin to kill extracellular bacteria. After the incubation, the HeLa cells in each well were lysed in 1 ml of PBS containing 0.1% Triton X-100. The lysates were diluted and plated onto LB agar plates in triplicate. Colonies grown on LB plates were counted. The results of the assays were expressed as the number of bacteria recovered from gentamicin-treated cells divided by the number of inoculated bacteria added to the cell. Values are means ± standard deviations from 6 independent wells. *p<0.01 vs. Sf301. […] (TIF) Click here for additional data file.

[3] = system: S. flexneri Sf9380; assay: Mouse Sereny test (keratoconjunctivitis); as to degree of keratoconjunctival inflammation: key: −: no disease; ±: little keratoconjunctivitis; +: mild keratoconjunctivitis; ++: keratoconjunctivitis with some purulence; +++: fully developed keratoconjunctivitis with great purulence; format: in vivo, BALB/c mice; conditions: for degree of keratoconjunctival inflammation: Sf9380 pre-treated at the concentration (I 1 12.5, I 2 25, I 3 and I 4 100 µmol/L); for keratoconjunctival inflammation (words, abstract): mice inoculated with pre-treated S. flexneri 9380
Description: A Mouse Sereny test was used to investigate the inhibitory effect of the four potential PhoQ inhibitors on the virulence of S. flexneri Sf9380. The mice were infected with 1×10^8 CFUs per eye.
A Mouse Sereny test was used to evaluate the virulence of S. flexneri Sf9380 [48]. A single red colony of Sf9380 on Congo Red agar (Tryptic soy broth provided by Oxfoid Co. with 1.5% agar and 0.01% Congo red), was inoculated into LB and grown with or without potential PhoQ inhibitors (final concentration 100,50,25,12.5 or 6.25 µmol/L) at 37°C for 8 hours with constant shaking. The female BALB/c mice (about 18 g) were infected with 1×10^8 CFUs per eye. The eye of the mouse was inoculated with the bacterium with or without potential PhoQ inhibitor treatment (n = 6 mice in each group). […] In the experiment, mouse eyes inoculated with untreated Sf9380 (treated without DMSO) served as the positive control for keratoconjunctivitis, and mouse eyes inoculated with E. coli ATCC 25922 (treated without DMSO) served as the negative control. Because DMSO is the solvent of the potential PhoQ inhibitor, Sf9380 was treated with the same amount of DMSO (0.1%) as the other groups. The invasiveness of the bacteria was scored: no disease or mild irritation as “−”, + as mild conjunctivitis or late development and/or rapid clearing of symptoms, ++ as keratoconjunctivitis without purulence, and +++ as fully developed keratoconjunctivitis with purulence.

[4] = Sf9380 pre-treated with 100 µmol/L, 1×10^8 CFUs per eye
[5] = Sf9380 pre-treated with 25 µmol/L, 1×10^8 CFUs per eye

Structure (SMILES) | effect on HeLa cell invasion ability of Sf301 [2] | degree of keratoconjunctival inflammation ([3]; 24 h, mouse 1) | degree of keratoconjunctival inflammation ([3]; 24 h, mouse 2) | degree of keratoconjunctival inflammation ([3]; 24 h, mouse 3) | degree of keratoconjunctival inflammation ([3]; 24 h, mouse 4) | degree of keratoconjunctival inflammation ([3]; 24 h, mouse 5) | degree of keratoconjunctival inflammation ([3]; 24 h, mouse 6) | degree of keratoconjunctival inflammation ([3]; 48 h, mouse 1) | degree of keratoconjunctival inflammation ([3]; 48 h, mouse 2) | degree of keratoconjunctival inflammation ([3]; 48 h, mouse 3) | degree of keratoconjunctival inflammation ([3]; 48 h, mouse 4) | degree of keratoconjunctival inflammation ([3]; 48 h, mouse 5) | degree of keratoconjunctival inflammation ([3]; 48 h, mouse 6) | degree of keratoconjunctival inflammation ([3]; 72 h, mouse 1) | degree of keratoconjunctival inflammation ([3]; 72 h, mouse 2) | degree of keratoconjunctival inflammation ([3]; 72 h, mouse 3) | degree of keratoconjunctival inflammation ([3]; 72 h, mouse 4) | degree of keratoconjunctival inflammation ([3]; 72 h, mouse 5) | degree of keratoconjunctival inflammation ([3]; 72 h, mouse 6) | degree of keratoconjunctival inflammation ([3]; 96 h, mouse 1) | also measured
O=C(O)c1cc(-c2ccc(-c3ccccc3Cl)o2)nc2ccc3ccccc3c12 [Compound 4] | no effect | + | + | + | + | + | − | + | − | − | − | + | − | + | − | − | − | − | − | − | cell invasion rate of Sf301 ΔphoQ/phoP ([1]; 100 µmo/L): 0.053; degree of keratoconjunctival inflammation ([3]; 96 h, mouse 2): −; degree of keratoconjunctival inflammation ([3]; 96 h, mouse 3): −; degree of keratoconjunctival inflammation ([3]; 96 h, mouse 4): −; degree of keratoconjunctival inflammation ([3]; 96 h, mouse 5): −; degree of keratoconjunctival inflammation ([3]; 96 h, mouse 6): −; eye finding at 24 hours post-infection [3, 4]: slight conjunctival inflammation; time by which keratoconjunctivitis was resolved [3, 4]: ≤ 72 h; keratoconjunctival inflammation (words, abstract) [3]: no inflammation
O=C(O)c1ccc(Cl)c(-c2ccc(/C=N/NC(=O)c3ccc(Br)cc3)o2)c1 [Compound 3] | can inhibit | + | + | + | + | + | + | + | − | − | − | + | − | − | + | − | − | − | − | − | cell invasion rate of Sf301 ΔphoQ/phoP ([1]; 100 µmo/L): 0.083; effect on cell invasion of Sf301 phoQ/phoP knock-out mutant [1]: no obvious effects; degree of keratoconjunctival inflammation ([3]; 96 h, mouse 2): −; degree of keratoconjunctival inflammation ([3]; 96 h, mouse 3): −; degree of keratoconjunctival inflammation ([3]; 96 h, mouse 4): −; degree of keratoconjunctival inflammation ([3]; 96 h, mouse 5): −; degree of keratoconjunctival inflammation ([3]; 96 h, mouse 6): −; eye finding at 24 hours post-infection [3, 4]: slight conjunctival inflammation; time by which keratoconjunctivitis was resolved [3, 4]: ≤ 72 h; keratoconjunctival inflammation (words, abstract) [3]: no inflammation
CCOc1ccccc1-c1cc(C(=O)N/N=C/c2ccc(OCc3ccccc3)c(OC)c2)c2ccccc2n1 [Compound 2] | can inhibit | + | + | + | + | + | + | − | + | − | − | − | − | − | − | − | − | − | − | − | cell invasion rate of Sf301 ΔphoQ/phoP ([1]; 25 µmo/L): 0.102; effect on cell invasion of Sf301 phoQ/phoP knock-out mutant [1]: no obvious effects; degree of keratoconjunctival inflammation ([3]; 96 h, mouse 2): −; degree of keratoconjunctival inflammation ([3]; 96 h, mouse 3): −; degree of keratoconjunctival inflammation ([3]; 96 h, mouse 4): −; degree of keratoconjunctival inflammation ([3]; 96 h, mouse 5): −; degree of keratoconjunctival inflammation ([3]; 96 h, mouse 6): −; eye finding at 24 hours after infection [3, 5]: slight conjunctival inflammation; time by which keratoconjunctivitis was resolved [3, 5]: ≤ 48 h; keratoconjunctival inflammation (words, abstract) [3]: no inflammation
